Activity calls are given as the source filed them.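 The calls were made as follows: active = compounds that block purified firefly luciferase enzyme with half-maximal potency below 20 µM; inactive = the rest.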

The target of the test is Luciferin 4-monooxygenase (Photinus pyralis) (UniProt P08659). Kind of test: purified FLuc enzyme activity modulation – biochemical, qHTS, Km substrates, luminescence, counter-screen for EBNA-1 inhibitor project, profiling panel (AID 588498). In general terms: In qHTS, concentration-response curves come from the screen itself.
Luciferin 4-monooxygenase (Photinus pyralis), sequence (P08659 whole entry, looked up): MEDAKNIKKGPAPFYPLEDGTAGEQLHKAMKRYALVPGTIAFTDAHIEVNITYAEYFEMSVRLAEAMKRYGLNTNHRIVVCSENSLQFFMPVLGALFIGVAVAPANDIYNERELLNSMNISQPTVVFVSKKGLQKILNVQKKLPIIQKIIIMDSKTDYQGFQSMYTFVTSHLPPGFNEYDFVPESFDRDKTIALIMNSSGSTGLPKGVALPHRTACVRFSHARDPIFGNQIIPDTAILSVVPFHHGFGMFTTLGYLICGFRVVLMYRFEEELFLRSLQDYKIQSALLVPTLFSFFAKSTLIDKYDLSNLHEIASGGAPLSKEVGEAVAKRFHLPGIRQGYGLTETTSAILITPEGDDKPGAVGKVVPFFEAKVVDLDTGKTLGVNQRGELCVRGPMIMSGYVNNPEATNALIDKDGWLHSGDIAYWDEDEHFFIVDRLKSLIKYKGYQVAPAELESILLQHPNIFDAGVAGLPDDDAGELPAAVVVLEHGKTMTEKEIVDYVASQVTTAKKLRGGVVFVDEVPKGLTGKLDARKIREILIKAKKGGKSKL
As to `Cc1ccccc1NC(=O)c1nnn(Cc2cccc(Cl)c2)c1N`, the AC50 (usually the concentration giving half of the maximal activity seen) is > 30 µM (inactive).
As to `COCCn1c(C)cc(C(=O)CSc2nnnn2-c2ccccc2)c1C`, the AC50 is 1.63 µM.
For `CS(=O)(=O)c1ccc2nc(NC(=O)c3ccccc3Cl)sc2c1` the value was 3.26 µM.
For `Nc1c(C(=O)Nc2ccc3c(c2)OCCO3)nnn1Cc1cccc(Cl)c1` the value was 3.26 µM; for `Cc1ccc(-n2nnnc2SCC(=O)c2cc(C)n(CC3CCCO3)c2C)cc1` (centres undefined), 6.51 µM; for `Nc1c(C(=O)Nc2ccc3c(c2)OCCO3)nnn1Cc1cccc(C(F)(F)F)c1`, 20.6 µM.
As for `Nc1c(C(=O)Nc2cccc(C(F)(F)F)c2)nnn1Cc1cccc(Cl)c1`, the AC50 is > 30 µM (inactive).
The figure for `COc1ccc(C(=O)Nc2nc3ccc(S(C)(=O)=O)cc3s2)cc1` is 2.59 µM; for `COc1cccc(Cn2nnc(C(=O)Nc3ccc4c(c3)OCCO4)c2N)c1` it is 4.11 µM.
The figure for `Cc1cccc(-n2nnnc2SCC(=O)c2cc(C)n(CC3CCCO3)c2C)c1` (centres undefined) is 18.3 µM; for `Cc1ccccc1C(=O)Nc1nc2ccc(S(C)(=O)=O)cc2s1` it is 6.51 µM.
For `Cc1cc(C(=O)CSc2nnnn2-c2ccccc2)c(C)n1CC1CCCO1` (centres undefined) the value was 2.06 µM; for `CS(=O)(=O)c1ccc2nc(NC(=O)c3cccc(F)c3)sc2c1`, 0.366 µM; for `Cc1cccc(C(=O)Nc2nc3ccc(S(C)(=O)=O)cc3s2)c1`, 2.91 µM.
In the case of `COc1ccc(Cn2nnc(C(=O)Nc3ccc4c(c3)OCCO4)c2N)cc1`, the half-maximal activity concentration (AC50) is 2.91 µM.
Regarding `Cc1ccc(C(=O)Nc2nc3ccc(S(C)(=O)=O)cc3s2)cc1`, the AC50 is 1.83 µM.
On to `COc1ccc2nc(NC(=O)c3ccc(C)c(C)c3)sc2c1`, for which the AC50 was 0.651 µM.
With `Cc1ccccc1-n1nnnc1SCC(=O)c1cc(C)n(CC2CCCO2)c1C` (centres undefined), the AC50 is 2.91 µM.
The figure for `Cc1ccc(C(=O)Nc2nc3ccc(S(C)(=O)=O)cc3s2)cc1C` is 5.8 µM.

These data come from PubChem BioAssay AID588498 (Molecular Libraries Program, Specialized Chemistry Center, …, 2011).
